Data on one compound can be found in patent US11191773B2, “Methods of treatment for bacterial infections” (President and Fellows of Harvard College, priority 2017, dated 2021).

Values after ≈ are worked out from the molar mass of the structure shown. Bounds are passed on as bounds.

Experiment [1] concerns E. coli strain ATCC 25922. The experiment in a line: Neutropenic mouse thigh infection efficacy. The experiment is classed as in vivo. The procedure: Female CD-1 mice from Charles River Laboratories were allowed to acclimate for 5 days prior to start of study. Animals were housed four per cage with free access to food and water. Mice received two doses of cyclophosphamide on days −4 and −1 with 150 mg/kg and 100 mg/kg delivered IP, respectively. All procedures were performed to NeoSome IACUC policies and guidelines as well as OLAW standards.
E. coli strain ATCC 25922 was prepared for infection from an overnight plate culture. A portion of the plate was resuspended in sterile saline and adjusted to an OD of 0.15 at 625 nm. The adjusted bacterial suspension was further diluted to target an infecting inoculum of 1.5×10^5 CFU/mouse, the actual inoculum size for E. coli was 1.45×10^5 CFU/mouse. Plate counts of the inoculum was performed to confirm inoculum concentration.
Mice were inoculated with 100 μL of the prepared bacterial suspension via intramuscular injection into the right rear thigh.
Beginning at two hours post infection, mice were dosed with test agents subcutaneously at 10 mL/kg. A second dose of test agents was delivered at 6 hours post infection. For co-administered therapy, test agents were delivered separately at two different injection sites. Four animals were dosed per group. One group of four mice were euthanized at initiation of therapy (T=2 h) and CFUs determined. All remaining mice were euthanized at 26 hours post infection. At termination, thighs were aseptically excised, weighed, and homogenized to a uniform consistency in 2 mL of sterile saline. The homogenate was serially diluted and plated on bacterial growth media. The CFUs were enumerated after overnight incubation. The average and standard deviations for each group were determined.
Neutropenic mice infected with E. coli were treated with novobiocin, polymyxin B, or a combination of the two for the evaluation of efficacy is a thigh infection model.

The next experiment concerns lptB1. The experiment in a line: Minimum inhibitory concentration assay. The note with it: Escherichia coli, 15 h, read-out: Minimum inhibitory concentration. The experiment is classed as cell-based, E. coli. How it is done: (§1) We wondered whether it would be possible to separate novobiocin's ability to suppress the IptFG(ch) defects in vivo from its activity against DNA gyrase, its presumed primary target. […] Minimum inhibitory concentrations were measured after a 15-hr incubation period at 37° C.
(§2) Overnight cultures were prepared by transferring 5 mL of sterile LB Miller media to culture tubes and inoculating with the corresponding organism. The tubes were allowed to shake at 220 rpm, 37° C. overnight. 15 μL of overnight culture was diluted in 15 mL of LB Miller in a Falcon tube and was vortexed to mix. In a 96-well plate, 100 μL of diluted culture was added to each well. To column #1, an additional 100 μL of diluted culture and test compound was added (93.7 μL culture+6.35 μL 10 mg/mL novobiocin) or (94.2 μL culture+5.87 μL 10 mg/mL 1-adamantyl-novobiocin) such that the highest concentration tested was 500 μM. Transferred 100 μL from column #1 into column #2, etc, and mixed each time thoroughly. Repeated serial dilution until column #11. Incubated the plate at 37° C. overnight (˜16 h) and read the turbidity (OD600) using a Spectramax 384 plus plate reader (Molecular Devices).

The next experiment concerns wild type. The experiment in a line: Minimum inhibitory concentration assay. The experiment is classed as cell-based, E. coli. To be noted: Escherichia coli, 15 h, read-out: Minimum inhibitory concentration. The procedure: as §1, §2
The next experiment relates to ΔtolC. Nature of the experiment: Minimum inhibitory concentration assay. To be noted: Escherichia coli, 15 h, read-out: Minimum inhibitory concentration. In kind it is cell-based, E. coli. The procedure:
as §1, §2

The mark [2] stands for this setting: Novobiocin 200 mg/kg (total 400) BID/SC.

Take `CO[C@@H]1[C@@H](OC(N)=O)[C@@H](O)[C@H](Oc2ccc3c(O)c(NC(=O)c4ccc(O)c(CC=C(C)C)c4)c(=O)oc3c2C)OC1(C)C` [Novobiocin, novobiocin]: in experiment [1] (setting [2]), the “change in log10 CFU/g of thigh from 2 hour control” value is 3.58 log10 CFU/g of thigh. The “change in log10 CFU/g of thigh from 26 hour controls” value in experiment [1] (setting [2]) is −0.51 log10 CFU/g of thigh. Moreover, in experiment [1] (Novobiocin delivered at 200 mg/kg), the “activity against this isolate” value is “did not demonstrate significant activity”. Besides, in experiment [1] (neutropenic CD-1 mice, Novobiocin 200 mg/kg (total 400) BID/SC, 26 hours post infection), the “Average log10 CFU/g of thigh” value was 9.12 log10 CFU/g of thigh. In addition, the values for the MIC with lptB1, in the experiment with wild type and in the experiment on ΔtolC were less than 0.5 µM, 62.5 to 125 µM (≈ 38.3 to 76.6 µg/mL) and 2 µM (≈ 1.23 µg/mL), respectively.
